Measurements taken from the Kinase Knowledgebase extract (Sharma et al. 2016).

Assays:
CDK2 (human) [1] = target: CDK2 (human) (UniProt P24941); assay: Cell-Based Assay
CDK2 (human) [2] = target: CDK2 (human) (UniProt P24941); assay: Enzyme Assay
CDK2 (human) [3] = target: CDK2 (human) (UniProt P24941); assay: Cell-Based Assay; conditions: rko

O=C1Nc2ccc3ncsc3c2/C1=C/Nc1ccc2nn[nH]c2c1
IC50 (CDK2 (human) [1]; mda-mb-468): 3050 nM | IC50 (CDK2 (human) [2]): 30.5 nM

CCC(C)Cc1cccc2c1C(=NNc1ccc(S(N)(=O)=O)cc1)C(=O)N2 (configuration not stated)
IC50 (CDK2 (human) [1]; hdf-3): 3050 nM | IC50 (CDK2 (human) [1]; rko): 3050 nM | IC50 (CDK2 (human) [2]): 5.5 nM

NS(=O)(=O)c1ccc(NN=C2C(=O)Nc3ccc(-c4cnco4)cc32)cc1
IC50 (CDK2 (human) [3]): 800 nM | IC50 (CDK2 (human) [1]; hdf): 3050 nM | IC50 (CDK2 (human) [1]; hdf-3): 800 nM | IC50 (CDK2 (human) [1]; mes/sa): 300 nM | IC50 (CDK2 (human) [1]; rko): 800 nM | IC50 (CDK2 (human) [2]): 5.5 nM

CN(C)S(=O)(=O)c1ccc(N/C=C2\C(=O)Nc3ccc(-c4cnco4)cc32)cc1
IC50 (CDK2 (human) [3]): 3050 nM | IC50 (CDK2 (human) [1]; rko): 3050 nM | IC50 (CDK2 (human) [2]): 5.5 nM

CNS(=O)(=O)Cc1ccc(NN=C2C(=O)Nc3cc(C)c(O)c(C)c32)cc1
IC50 (CDK2 (human) [3]): 300 nM | IC50 (CDK2 (human) [1]; hdf): 800 nM | IC50 (CDK2 (human) [1]; hdf-3): 3050 nM | IC50 (CDK2 (human) [1]; rko): 300 nM | IC50 (CDK2 (human) [2]): 75.5 nM

CNS(=O)(=O)Cc1ccc(NN=C2C(=O)Nc3ccc4ncccc4c32)cc1
IC50 (CDK2 (human) [1]; hdf-3): 3050 nM | IC50 (CDK2 (human) [1]; rko): 3050 nM | IC50 (CDK2 (human) [2]): 5.5 nM

CS(=O)(=O)Cc1ccc(N/C=C2\C(=O)Nc3ccc4ncsc4c32)cc1
IC50 (CDK2 (human) [1]; hdf-3): 3050 nM | IC50 (CDK2 (human) [1]; mes/sa): 3050 nM | IC50 (CDK2 (human) [1]; rko): 3050 nM | IC50 (CDK2 (human) [2]): 30.5 nM

CN(C)S(=O)(=O)c1ccc(N/C=C2/C(=O)Nc3ccc(-c4cnco4)cc32)cc1
IC50 (CDK2 (human) [1]; mda-mb-468): > 5000 nM
